Reference: patent US12612622B2, “Targeted mutagenesis using base editors” (Qi Biodesign Biotechnology Company Limited, priority 2018, dated 2026)

System: OsACCase gene
Experiment: Base editing (pZRH-PBE + individual sgRNAs) of OsACCase functional domain in transgenic M0 rice plants
Format: in vivo
Settings: for Frequency of indel (%) / Frequency of substitution (%) / No. of WT / No. of indel / No. of substitution: transgenic M0 plants; for No. of WT / No. of indel / No. of substitution: per sgRNA target
Excerpt: For individual cloning, the following method is used. APOBEC1, partial nCas9 and UGI sequences (SEQ ID NO: 129) without BsaI were synthesized commercially (GenScript, Nanjing, China) and cloned into the pUC57 (SEQ ID NO: 130) as intermediate vector. […] The full length APOBEC1-nCas9-UGI was excised using XmaJI and SacI, then was subcloned into pHUE411 that had been digested using the same two enzymes. The resultant vector pZRH-PBE (SEQ ID NO: 133) was used to construct sgRNA expression plasmids using restriction enzyme site BsaI.

[1] = edited allele with the substitution of the same table line

Row | Substance | No. of alleles (edited allele with the substitution of the same table line, edited allele (SEQ ID NO: 86)) | No. of alleles (edited allele with the substitution of the same table line, edited allele (SEQ ID NO: 87)) | Frequency of indel (%) | Frequency of substitution (%) | No. of WT | No. of indel | No. of substitution | No. of alleles (unedited target site sequence) | No. of alleles [1] | No. of alleles (edited allele with the substitution of the same table line, edited allele (SEQ ID NO: 77)) | No. of alleles (edited allele with the substitution of the same table line, edited allele (SEQ ID NO: 78)) | No. of alleles (edited allele with the substitution of the same table line, edited allele (SEQ ID NO: 120)) | No. of alleles (edited allele with the substitution of the same table line, edited allele (SEQ ID NO: 121)) | No. of alleles (edited allele with the substitution of the same table line, edited allele (SEQ ID NO: 110)) | No. of alleles (edited allele with the substitution of the same table line, edited allele (SEQ ID NO: 111)) | No. of alleles (edited allele with the substitution of the same table line, edited allele (SEQ ID NO: 112))
1 | R25: sgRNA in pZRH-PBE; OsACCase target site ACTTCCAGTAACAACACCGTTGG (SEQ ID NO: 85) (expressed or natural sequence; the letters are possibly those of the target site) | 2 | 1 | 0.0 | 40.0 | 3 | 0 | 2 | 1 | – | – | – | – | – | – | – | –
2 | R26: sgRNA in pZRH-PBE; OsACCase target site AACAACACCGTTGGACCCACCGG (SEQ ID NO: 88) (expressed or natural sequence; target site or template, no part of the molecule) | – | – | 0.0 | 71.4 | 2 | 0 | 5 | 4 | 4 | – | – | – | – | – | – | –
3 | R29: sgRNA in pZRH-PBE; OsACCase target site CAAACTATCCCTGCTGACCCTGG (SEQ ID NO: 94) (expressed or natural sequence; target site or template, no part of the molecule) | – | – | 12.0 | 60.0 | 7 | 3 | 15 | 8 | – | – | – | – | – | – | – | –
4 | R30: sgRNA in pZRH-PBE; OsACCase target site ATGGCTGCAGAGCTACGAGGAGG (SEQ ID NO: 99) (expressed or natural sequence; target site or template, no part of the molecule) | – | – | 12.5 | 56.3 | 5 | 2 | 9 | 5 | – | – | – | – | – | – | – | –
5 | R21: sgRNA in pZRH-PBE; OsACCase target site AGCTCCCACATGCAGTTGGGTGG (SEQ ID NO: 76) (expressed or natural sequence; target site or template, no part of the molecule) | – | – | 9.5 | 23.8 | 14 | 2 | 5 | 4 | – | 2 | 4 | – | – | – | – | –
6 | R37: sgRNA in pZRH-PBE; OsACCase target site CCTGAGAACTCGTGTGATCCTCG (SEQ ID NO: 119) (expressed or natural sequence; target site or template, no part of the molecule) | – | – | 45.5 | 18.2 | 4 | 5 | 2 | 1 | – | – | – | 1 | 2 | – | – | –
7 | R18: sgRNA in pZRH-PBE; OsACCase target site CCGCAAGGGTTAATTGAGATCAA (SEQ ID NO: 68) (expressed or natural sequence; target site or template, no part of the molecule) | – | – | 13.0 | 60.9 | 6 | 3 | 14 | 7 | – | – | – | – | – | – | – | –
8 | R4: sgRNA in pZRH-PBE; OsACCase target site TCTGCACTGAACAAGCTTCTTGG (SEQ ID NO: 11) (expressed or natural sequence; target site or template, no part of the molecule) | – | – | 3.1 | 31.3 | 24 | 2 | 6 | 6 | – | – | – | – | – | – | – | –
9 | R2: sgRNA in pZRH-PBE; OsACCase target site CCGGTGCATACAGCGTCTTGACC (SEQ ID NO: 8) (expressed or natural sequence; target site or template, no part of the molecule) | – | – | 0 | 80 | 5 | 0 | 20 | 6 | – | – | – | – | – | – | – | –
10 | R23: sgRNA in pZRH-PBE; OsACCase target site GCGTTTCTAATATATTGAGGTGG (SEQ ID NO: 81) (expressed or natural sequence; target site or template, no part of the molecule) | – | – | 0.0 | 22.2 | 21 | 0 | 6 | 3 | 9 | – | – | – | – | – | – | –
11 | R17: sgRNA in pZRH-PBE; OsACCase target site GGAGCTTATCTTGCTCGACTTGG (SEQ ID NO: 64) (expressed or natural sequence; target site or template, no part of the molecule) | – | – | 4.8 | 42.9 | 22 | 2 | 18 | 16 | – | – | – | – | – | – | – | –
12 | R27: sgRNA in pZRH-PBE; OsACCase target site GAACTCGTGTGATCCTCGAGCGG (SEQ ID NO: 90) (chemistry not fully specified; the letters are possibly those of the target site) | – | – | 0.0 | 15.4 | 11 | 0 | 2 | 1 | 3 | – | – | – | – | – | – | –
13 | R33: sgRNA in pZRH-PBE; OsACCase target site CCTTTGTCTACATTCCCATGGCT (SEQ ID NO: 107) (expressed or natural sequence; target site or template, no part of the molecule) | – | – | 5.9 | 41.2 | 9 | 1 | 7 | 1 | 1 | – | – | – | – | – | – | –
14 | R6: sgRNA in pZRH-PBE; OsACCase target site CCATCTTACTGTTTCAGATGACC (SEQ ID NO: 22) (expressed or natural sequence; target site or template, no part of the molecule) | – | – | 14.3 | 19 | 14 | 3 | 4 | 2 | – | – | – | – | – | – | – | –
15 | R32: sgRNA in pZRH-PBE; OsACCase target site CCCAGACCGCATTGAGTGCTATG (SEQ ID NO: 104) (expressed or natural sequence; target site or template, no part of the molecule) | – | – | 10.5 | 21.1 | 13 | 2 | 4 | 2 | 1 | – | – | – | – | – | – | –
16 | R7: sgRNA in pZRH-PBE; OsACCase target site CCCTGCTGACCCTGGTCAGCTTG (SEQ ID NO: 27) (expressed or natural sequence; target site or template, no part of the molecule) | – | – | 5.9 | 58.8 | 6 | 1 | 10 | 4 | 1 | – | – | – | – | – | – | –
17 | R28: sgRNA in pZRH-PBE; OsACCase target site GTTACTGGCAGAGCAAAGCTTGG (SEQ ID NO: 92) (expressed or natural sequence; target site or template, no part of the molecule) | – | – | 14.3 | 42.9 | 3 | 1 | 3 | 0 | 6 | – | – | – | – | – | – | –
18 | R24: sgRNA in pZRH-PBE; OsACCase target site TATGTTCCTGCCTACATTGGTGG (SEQ ID NO: 83) (expressed or natural sequence; target site or template, no part of the molecule) | – | – | 14.3 | 9.5 | 16 | 3 | 2 | 2 | 2 | – | – | – | – | – | – | –
19 | R34: sgRNA in pZRH-PBE; OsACCase target site CCAGTGGGTGTGATAGCTGTGGA (SEQ ID NO: 109) (expressed or natural sequence; the letters are possibly those of the target site) | – | – | 0.0 | 71.4 | 4 | 0 | 10 | 7 | – | – | – | – | – | 3 | 2 | 4
